Measurements published in PubChem BioAssay AID2060508 (Molecular Pharmacology Branch, DTP, NCI, 2025).

Test system: 454973-116-R2-J3-PDC spheroids, viability, % test/control
Assay: Anticancer human tumor 454973-116-R2-J3-PDC patient-derived pancreatic carcinoma cell line growth inhibition [GQUAD]
Conditions: second compound 10 µM; first compound 0.0316 µM; hits give low values; spheroids with HUVEC and MSC
Excerpt: DNA G-quadruplex Stabilizer Agents in Combinations in Complex Spheroids
A high-throughput screen of multi-cell type tumor spheroids was designed to identify active combinations of DNA G-quadruplex stabilizer agents and targeted small molecules. Complex spheroids include a stromal component modeled by human endothelial cells (HUVEC) and fibroblasts modeled by human mesenchymal stem cells (MSCs). The concentration ranges selected for each drug and investigational agent were based upon clinically achievable concentrations if the clinical Cmax of the agent was known.
Compounds. The drugs and investigational agents: pidnarulex (CX-5461; NSC782164), APTO-253 (NSC789042), BRACO-19 (NSC847499), peposertib (NSC802822), ceralasertib (NSC780249), elimusertib (NSC800525), camonsertib (NSC841442), AZD-1390 (NSC803789), olaparib (NSC753686), talazoparib (NSC767125), ART-558 (NSC835418), sotorasib (NSC818433), MRTX-1133 (NSC836407), SN-38 (NSC673596), topotecan (NSC609699), etoposide (NSC141540), doxorubicin (NSC123127), gemcitabine (NSC613327), 5-fluorouracil (NSC19893), paclitaxel (NSC125973), vemurafenib (NSC761431), panobinostat (NSC761190), R-306465 (JNJ-16241199; NSC773264), adavosertib (NSC754352), TP-3654 (NSC805149), carboplatin (NSC241240), KSQ-4279 (NSC840948), and staurosporine (NSC755774) were obtained from the National Cancer Institute (NCI) Developmental Therapeutics Program Chemical Repository (34). The FDA-approved anticancer drug set is available from the NCI Developmental Therapeutics Program. […] The stock solutions were prepared in dimethyl sulfoxide (DMSO, Sigma-Aldrich, St. Louis, MO, cat. D2650) at 800-fold the tested concentration and stored at -70 degrees C prior to their use. All drugs and investigational agents were tested over a range starting from a high concentration at or near the clinical Cmax and decreasing in half-log increments. If the clinical Cmax for an agent had not been determined, the highest concentration tested was 10 microM.
2.3 Cell Culture. All cells were maintained in an incubator at 37 degrees C and 5% CO2 with 95% humidity. The PDC lines were cultured according to standard operating procedures established by the NCI PDMR. All PDCs were thawed and cultured in Matrigel-coated flasks prepared with a working solution of 1X Ham's F-12 nutrient mix, without supplementation (Invitrogen, cat. 11765054), 100 U/mL penicillin-streptomycin (Invitrogen, cat. 15140122), and 2.5% Matrigel (Corning Inc., cat. 354248) for the first three passages. The 857933-349-R-J2-PDC line was cultured in 6C/Colon 1B media, which includes advanced DMEM/F-12 (Thermo Fisher Scientific, cat. 12634028), 10 mM HEPES (Thermo Fisher Scientific, cat. 15630080), 1X GlutaMAX supplement (Thermo Fisher Scientific, cat. 35050061), 0.1 mg/mL primocin (InvivoGen, cat. ant-pm-2), 10% defined fetal bovine serum, heat inactivated (HyClone Laboratories Inc., cat. SH30070.03HI), 50% L-WRN conditioned media (ATCC, cat. CRL-3276), 1.25 mM N-Acetyl-L-cysteine (Sigma-Aldrich, cat. A9165), 10 mM nicotinamide (Sigma-Aldrich, cat. N0636), 1X B-27 supplement (Thermo Fisher Scientific, cat. 17504044), 1X N-2 supplement (Thermo Fisher Scientific, cat. 17502048), 10 microM Y-27632 dihydrochloride (Tocris Bioscience, cat. 1254), and 50 ng/mL human EGF recombinant protein (Thermo Fisher Scientific, cat. PHG0311). The 485176-168-R4-J1-PDC line was cultured in Panc media, which includes all 6C/Colon 1B media components plus 100 ng/mL human FGF-10 (Thermo Fisher Scientific, cat. 100-26), 500 nM SB-431542 (Selleckchem, cat. S1067), and gastrin (Tocris, cat. 3006).
[…]
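Further: spheroids exposed to compounds for seven days.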

Work on `O=c1[nH]cc(F)c(=O)[nH]1` + CN(C)c1ccc(Nc2c3ccc(NC(=O)CCN4CCCC4)cc3nc3cc(NC(=O)CCN4CCCC4)ccc23)cc1 yielded a viability, T/C of 78.9%.

Same assay, conditions: second compound 10 µM; first compound 0.1 µM; hits give low values; spheroids with HUVEC and MSC

Going from `C#Cc1c(F)ccc2cc(O)cc(-c3ncc4c(N5CC6CCC(C5)N6)nc(OCC56CCCN5CC(F)C6)nc4c3F)c12` (stereo unspecified) + CN(C)c1ccc(Nc2c3ccc(NC(=O)CCN4CCCC4)cc3nc3cc(NC(=O)CCN4CCCC4)ccc23)cc1 to `CC(C)n1c(=O)n(C)c2cnc3cc(F)c(-c4ccc(OCCCN5CCCCC5)nc4)cc3c21` + CN(C)c1ccc(Nc2c3ccc(NC(=O)CCN4CCCC4)cc3nc3cc(NC(=O)CCN4CCCC4)ccc23)cc1, the viability, T/C rises from 26.7% to 74.6%.

Going from `Nc1ccn(C2OC(CO)C(O)C2(F)F)c(=O)n1` (stereo unspecified) + CN(C)c1ccc(Nc2c3ccc(NC(=O)CCN4CCCC4)cc3nc3cc(NC(=O)CCN4CCCC4)ccc23)cc1 to `O=c1[nH]cc(F)c(=O)[nH]1` + CN(C)c1ccc(Nc2c3ccc(NC(=O)CCN4CCCC4)cc3nc3cc(NC(=O)CCN4CCCC4)ccc23)cc1, the viability, T/C rises from 14.2% to 74.2%.

Same assay, conditions: second compound 10 µM; first compound 0.316 µM; hits give low values; spheroids with HUVEC and MSC

Compared with `C#Cc1c(F)ccc2cc(O)cc(-c3ncc4c(N5CC6CCC(C5)N6)nc(OCC56CCCN5CC(F)C6)nc4c3F)c12` (stereo unspecified) + CN(C)c1ccc(Nc2c3ccc(NC(=O)CCN4CCCC4)cc3nc3cc(NC(=O)CCN4CCCC4)ccc23)cc1, `CC(C)n1c(=O)n(C)c2cnc3cc(F)c(-c4ccc(OCCCN5CCCCC5)nc4)cc3c21` + CN(C)c1ccc(Nc2c3ccc(NC(=O)CCN4CCCC4)cc3nc3cc(NC(=O)CCN4CCCC4)ccc23)cc1 is higher in viability, T/C: 17.5% for the first, 69% for the second.

Going from `Nc1ccn(C2OC(CO)C(O)C2(F)F)c(=O)n1` (stereo unspecified) + CN(C)c1ccc(Nc2c3ccc(NC(=O)CCN4CCCC4)cc3nc3cc(NC(=O)CCN4CCCC4)ccc23)cc1 to `O=c1[nH]cc(F)c(=O)[nH]1` + CN(C)c1ccc(Nc2c3ccc(NC(=O)CCN4CCCC4)cc3nc3cc(NC(=O)CCN4CCCC4)ccc23)cc1, the viability, T/C rises from 16.9% to 78%.

Same assay, conditions: second compound 10 µM; first compound 1 µM; hits give low values; spheroids with HUVEC and MSC

Going from `C#Cc1c(F)ccc2cc(O)cc(-c3ncc4c(N5CC6CCC(C5)N6)nc(OCC56CCCN5CC(F)C6)nc4c3F)c12` (stereo unspecified) + CN(C)c1ccc(Nc2c3ccc(NC(=O)CCN4CCCC4)cc3nc3cc(NC(=O)CCN4CCCC4)ccc23)cc1 to `CC(C)n1c(=O)n(C)c2cnc3cc(F)c(-c4ccc(OCCCN5CCCCC5)nc4)cc3c21` + CN(C)c1ccc(Nc2c3ccc(NC(=O)CCN4CCCC4)cc3nc3cc(NC(=O)CCN4CCCC4)ccc23)cc1, the viability, T/C rises from 13.4% to 61.4%.

Compared with `Nc1ccn(C2OC(CO)C(O)C2(F)F)c(=O)n1` (stereo unspecified) + CN(C)c1ccc(Nc2c3ccc(NC(=O)CCN4CCCC4)cc3nc3cc(NC(=O)CCN4CCCC4)ccc23)cc1, `O=c1[nH]cc(F)c(=O)[nH]1` + CN(C)c1ccc(Nc2c3ccc(NC(=O)CCN4CCCC4)cc3nc3cc(NC(=O)CCN4CCCC4)ccc23)cc1 is higher in viability, T/C: 17.6% for the first, 64.8% for the second.

Same assay, conditions: second compound 10 µM; first compound 3.16 µM; hits give low values; spheroids with HUVEC and MSC

Going from `C#Cc1c(F)ccc2cc(O)cc(-c3ncc4c(N5CC6CCC(C5)N6)nc(OCC56CCCN5CC(F)C6)nc4c3F)c12` (stereo unspecified) + CN(C)c1ccc(Nc2c3ccc(NC(=O)CCN4CCCC4)cc3nc3cc(NC(=O)CCN4CCCC4)ccc23)cc1 to `CC(C)n1c(=O)n(C)c2cnc3cc(F)c(-c4ccc(OCCCN5CCCCC5)nc4)cc3c21` + CN(C)c1ccc(Nc2c3ccc(NC(=O)CCN4CCCC4)cc3nc3cc(NC(=O)CCN4CCCC4)ccc23)cc1, the viability, T/C rises from 3.6% to 61.8%.

Compared with `Nc1ccn(C2OC(CO)C(O)C2(F)F)c(=O)n1` (stereo unspecified) + CN(C)c1ccc(Nc2c3ccc(NC(=O)CCN4CCCC4)cc3nc3cc(NC(=O)CCN4CCCC4)ccc23)cc1, `O=c1[nH]cc(F)c(=O)[nH]1` + CN(C)c1ccc(Nc2c3ccc(NC(=O)CCN4CCCC4)cc3nc3cc(NC(=O)CCN4CCCC4)ccc23)cc1 is higher in viability, T/C: 19.7% for the first, 38.7% for the second.

Same assay, conditions: second compound 10 µM; first compound 10 µM; hits give low values; spheroids with HUVEC and MSC

Going from `C#Cc1c(F)ccc2cc(O)cc(-c3ncc4c(N5CC6CCC(C5)N6)nc(OCC56CCCN5CC(F)C6)nc4c3F)c12` (stereo unspecified) + CN(C)c1ccc(Nc2c3ccc(NC(=O)CCN4CCCC4)cc3nc3cc(NC(=O)CCN4CCCC4)ccc23)cc1 to `CC(C)n1c(=O)n(C)c2cnc3cc(F)c(-c4ccc(OCCCN5CCCCC5)nc4)cc3c21` + CN(C)c1ccc(Nc2c3ccc(NC(=O)CCN4CCCC4)cc3nc3cc(NC(=O)CCN4CCCC4)ccc23)cc1, the viability, T/C rises from 0.44% to 34.1%.

Going from `Nc1ccn(C2OC(CO)C(O)C2(F)F)c(=O)n1` (stereo unspecified) + CN(C)c1ccc(Nc2c3ccc(NC(=O)CCN4CCCC4)cc3nc3cc(NC(=O)CCN4CCCC4)ccc23)cc1 to `O=c1[nH]cc(F)c(=O)[nH]1` + CN(C)c1ccc(Nc2c3ccc(NC(=O)CCN4CCCC4)cc3nc3cc(NC(=O)CCN4CCCC4)ccc23)cc1, the viability, T/C rises from 19.8% to 36%.
